Source: the kinase profiling compilation of Christmann-Franck et al. (2016)

Legend:
Assay in all cases: KINOMEscan competition binding
Conditions in all cases: compound 10.0 µM
SIK1 (human) = SIK1 (human) (UniProt P57059)
[1] = system: ABL1 (human), P00519 [T315I]
CSF1R (human) = CSF1R (human) (UniProt P07333)
MAPK1 (human) = MAPK1 (human) (UniProt P28482)
NUAK1 (human) = NUAK1 (human) (UniProt O60285)
CDK5 (human) = CDK5 (human) (UniProt Q00535)
TNK2 (human) = TNK2 (human) (UniProt Q07912)
CSNK1A1L (human) = CSNK1A1L (human) (UniProt Q8N752)
[2] = biological target: TYK2 JH1 catalytic (human) (UniProt P29597)
IGF1R (human) = IGF1R (human) (UniProt P08069)
RET (human) = RET (human) (UniProt P07949)
MAPK6 (human) = MAPK6 (human) (UniProt Q16659)
BTK (human) = BTK (human) (UniProt Q06187)
Sequence of BTK (human) (Q06187 whole entry, looked up): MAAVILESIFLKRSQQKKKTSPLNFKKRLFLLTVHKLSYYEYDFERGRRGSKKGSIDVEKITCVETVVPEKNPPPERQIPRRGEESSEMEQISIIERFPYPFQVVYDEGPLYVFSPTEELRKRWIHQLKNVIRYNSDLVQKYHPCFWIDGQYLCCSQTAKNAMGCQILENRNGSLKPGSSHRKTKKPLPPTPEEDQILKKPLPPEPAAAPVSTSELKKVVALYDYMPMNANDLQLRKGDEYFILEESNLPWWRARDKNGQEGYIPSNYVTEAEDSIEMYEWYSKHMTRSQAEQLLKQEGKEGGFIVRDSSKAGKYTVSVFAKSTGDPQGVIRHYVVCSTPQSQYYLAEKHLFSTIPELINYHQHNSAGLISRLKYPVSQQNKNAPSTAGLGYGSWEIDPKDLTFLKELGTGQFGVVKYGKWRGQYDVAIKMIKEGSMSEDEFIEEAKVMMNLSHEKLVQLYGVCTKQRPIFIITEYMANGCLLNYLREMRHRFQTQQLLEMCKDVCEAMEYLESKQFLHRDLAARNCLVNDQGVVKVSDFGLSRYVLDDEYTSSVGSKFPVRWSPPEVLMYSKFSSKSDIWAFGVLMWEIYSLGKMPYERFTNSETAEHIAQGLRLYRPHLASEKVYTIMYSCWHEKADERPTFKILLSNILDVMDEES

SRC (human) = SRC (human) (UniProt P12931)
KDR (human) = KDR (human) (UniProt P35968)
Sequence of KDR (human) (P35968 whole entry, looked up): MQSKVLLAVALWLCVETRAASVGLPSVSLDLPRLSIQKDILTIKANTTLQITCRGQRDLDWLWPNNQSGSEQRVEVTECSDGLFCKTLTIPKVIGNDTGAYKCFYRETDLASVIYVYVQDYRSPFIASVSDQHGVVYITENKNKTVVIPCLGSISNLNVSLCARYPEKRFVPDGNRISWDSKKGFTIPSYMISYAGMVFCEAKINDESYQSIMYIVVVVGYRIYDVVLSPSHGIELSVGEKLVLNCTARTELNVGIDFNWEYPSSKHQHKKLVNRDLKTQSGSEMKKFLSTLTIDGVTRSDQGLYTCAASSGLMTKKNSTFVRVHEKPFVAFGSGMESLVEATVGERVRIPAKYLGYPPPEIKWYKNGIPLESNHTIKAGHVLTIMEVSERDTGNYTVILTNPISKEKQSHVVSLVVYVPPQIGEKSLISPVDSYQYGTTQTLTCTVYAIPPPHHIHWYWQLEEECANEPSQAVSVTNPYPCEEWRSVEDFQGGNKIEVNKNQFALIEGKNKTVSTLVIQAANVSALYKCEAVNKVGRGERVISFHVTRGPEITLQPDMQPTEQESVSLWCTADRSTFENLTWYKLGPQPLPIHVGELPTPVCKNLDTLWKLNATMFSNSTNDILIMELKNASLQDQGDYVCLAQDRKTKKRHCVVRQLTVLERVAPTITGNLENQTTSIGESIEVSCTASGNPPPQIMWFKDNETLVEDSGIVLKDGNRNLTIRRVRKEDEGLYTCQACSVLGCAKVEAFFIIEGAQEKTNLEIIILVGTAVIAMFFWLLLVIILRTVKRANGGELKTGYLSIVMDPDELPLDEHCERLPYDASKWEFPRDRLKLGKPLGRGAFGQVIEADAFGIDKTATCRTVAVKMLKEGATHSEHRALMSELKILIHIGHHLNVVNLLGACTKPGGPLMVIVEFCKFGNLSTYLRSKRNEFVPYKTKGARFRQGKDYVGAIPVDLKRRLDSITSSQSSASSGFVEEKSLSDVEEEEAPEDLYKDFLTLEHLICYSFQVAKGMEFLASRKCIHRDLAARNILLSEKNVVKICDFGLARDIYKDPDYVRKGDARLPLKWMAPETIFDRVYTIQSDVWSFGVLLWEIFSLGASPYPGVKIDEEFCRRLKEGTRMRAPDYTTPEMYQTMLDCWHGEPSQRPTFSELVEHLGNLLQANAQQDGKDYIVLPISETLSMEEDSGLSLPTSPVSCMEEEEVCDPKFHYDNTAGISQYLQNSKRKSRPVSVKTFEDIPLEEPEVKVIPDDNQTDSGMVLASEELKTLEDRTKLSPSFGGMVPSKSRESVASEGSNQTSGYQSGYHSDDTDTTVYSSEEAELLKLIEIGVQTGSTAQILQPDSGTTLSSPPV

BMPR1A (human) = BMPR1A (human) (UniProt P36894)
FRK (human) = FRK (human) (UniProt P42685)
SYK (human) = SYK (human) (UniProt P43405)
CDK15 (human) = CDK15 (human) (UniProt Q96Q40)
[3] = system: ABL1 (human), P00519 [E255K]
MAPK3 (human) = MAPK3 (human) (UniProt P27361)
MAPK7 (human) = MAPK7 (human) (UniProt Q13164)
MAP3K4 (human) = MAP3K4 (human) (UniProt Q9Y6R4)
CAMK1 (human) = CAMK1 (human) (UniProt Q14012)
Sequence of CAMK1 (human) (Q14012 whole entry, looked up): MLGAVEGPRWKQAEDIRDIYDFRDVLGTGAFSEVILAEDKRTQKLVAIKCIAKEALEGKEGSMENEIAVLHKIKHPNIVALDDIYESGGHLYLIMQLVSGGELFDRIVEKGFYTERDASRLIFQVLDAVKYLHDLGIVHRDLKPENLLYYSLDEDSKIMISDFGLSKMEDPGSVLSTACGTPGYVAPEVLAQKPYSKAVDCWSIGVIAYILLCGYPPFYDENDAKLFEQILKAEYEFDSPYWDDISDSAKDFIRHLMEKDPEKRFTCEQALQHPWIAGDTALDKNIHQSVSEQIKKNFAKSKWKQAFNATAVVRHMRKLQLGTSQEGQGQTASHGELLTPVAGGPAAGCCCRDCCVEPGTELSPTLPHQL

LATS1 (human) = LATS1 (human) (UniProt O95835)
ERBB4 (human) = ERBB4 (human) (UniProt Q15303)
CDK8 (human) = CDK8 (human) (UniProt P49336)
Sequence of CDK8 (human) (P49336 whole entry, looked up): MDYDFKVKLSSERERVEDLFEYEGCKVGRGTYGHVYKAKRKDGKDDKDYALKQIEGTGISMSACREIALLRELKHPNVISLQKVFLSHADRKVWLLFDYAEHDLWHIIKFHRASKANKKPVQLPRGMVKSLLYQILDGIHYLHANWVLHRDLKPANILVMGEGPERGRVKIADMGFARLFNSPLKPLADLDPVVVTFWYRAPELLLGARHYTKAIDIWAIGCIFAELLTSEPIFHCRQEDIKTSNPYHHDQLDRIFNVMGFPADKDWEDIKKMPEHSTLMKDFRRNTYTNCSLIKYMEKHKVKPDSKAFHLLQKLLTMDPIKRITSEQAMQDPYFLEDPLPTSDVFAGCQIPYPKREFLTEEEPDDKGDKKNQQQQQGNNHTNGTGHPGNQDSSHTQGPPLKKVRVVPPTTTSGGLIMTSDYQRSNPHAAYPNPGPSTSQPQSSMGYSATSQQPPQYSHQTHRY

ERBB2 (human) = ERBB2 (human) (UniProt P04626)
FLT1 (human) = FLT1 (human) (UniProt P17948)
MAP2K6 (human) = MAP2K6 (human) (UniProt P52564)
Sequence of MAP2K6 (human) (P52564 whole entry, looked up): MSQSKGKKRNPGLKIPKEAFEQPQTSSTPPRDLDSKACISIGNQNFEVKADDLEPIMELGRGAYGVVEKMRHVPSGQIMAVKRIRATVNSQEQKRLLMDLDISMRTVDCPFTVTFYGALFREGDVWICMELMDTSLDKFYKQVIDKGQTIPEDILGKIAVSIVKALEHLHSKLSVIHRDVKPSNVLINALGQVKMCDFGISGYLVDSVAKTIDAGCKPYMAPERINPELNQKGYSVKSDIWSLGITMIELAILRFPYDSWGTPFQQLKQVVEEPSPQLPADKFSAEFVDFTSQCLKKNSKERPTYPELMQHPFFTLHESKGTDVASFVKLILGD

MAPK10 (human) = MAPK10 (human) (UniProt P53779)
PRKAA2 (human) = PRKAA2 (human) (UniProt P54646)
[4] = system: RET (human), P07949 [V804L]
MYO3A (human) = MYO3A (human) (UniProt Q8NEV4)
MAP3K3 (human) = MAP3K3 (human) (UniProt Q99759)
Sequence of MAP3K3 (human) (Q99759 whole entry, looked up): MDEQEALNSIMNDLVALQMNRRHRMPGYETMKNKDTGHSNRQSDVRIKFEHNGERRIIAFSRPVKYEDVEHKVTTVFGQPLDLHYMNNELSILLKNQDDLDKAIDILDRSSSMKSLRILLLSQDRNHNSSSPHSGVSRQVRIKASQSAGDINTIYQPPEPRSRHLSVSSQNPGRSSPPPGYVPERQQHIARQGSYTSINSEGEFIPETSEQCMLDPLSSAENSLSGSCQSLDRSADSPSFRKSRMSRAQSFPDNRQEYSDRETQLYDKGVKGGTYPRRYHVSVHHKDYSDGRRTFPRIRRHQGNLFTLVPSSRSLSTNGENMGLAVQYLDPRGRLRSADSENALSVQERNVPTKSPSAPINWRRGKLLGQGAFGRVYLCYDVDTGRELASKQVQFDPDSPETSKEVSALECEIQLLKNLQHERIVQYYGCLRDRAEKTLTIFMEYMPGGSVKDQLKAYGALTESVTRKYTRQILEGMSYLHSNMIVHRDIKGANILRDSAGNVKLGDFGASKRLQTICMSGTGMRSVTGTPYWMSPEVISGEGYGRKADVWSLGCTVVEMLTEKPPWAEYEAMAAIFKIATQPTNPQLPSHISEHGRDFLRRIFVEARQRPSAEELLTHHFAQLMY

MAPK4 (human) = MAPK4 (human) (UniProt P31152)
STK36 (human) = STK36 (human) (UniProt Q9NRP7)
[5] = system: EGFR (human), P00533 [P753S; 747-752 del]
EPHA3 (human) = EPHA3 (human) (UniProt P29320)
CAMK2B (human) = CAMK2B (human) (UniProt Q13554)
[6] = system: ABL1 (human), P00519 [Q252H]
TGFBR1 (human) = TGFBR1 (human) (UniProt P36897)

Sequence of SIK1 (human) (P57059 whole entry, looked up): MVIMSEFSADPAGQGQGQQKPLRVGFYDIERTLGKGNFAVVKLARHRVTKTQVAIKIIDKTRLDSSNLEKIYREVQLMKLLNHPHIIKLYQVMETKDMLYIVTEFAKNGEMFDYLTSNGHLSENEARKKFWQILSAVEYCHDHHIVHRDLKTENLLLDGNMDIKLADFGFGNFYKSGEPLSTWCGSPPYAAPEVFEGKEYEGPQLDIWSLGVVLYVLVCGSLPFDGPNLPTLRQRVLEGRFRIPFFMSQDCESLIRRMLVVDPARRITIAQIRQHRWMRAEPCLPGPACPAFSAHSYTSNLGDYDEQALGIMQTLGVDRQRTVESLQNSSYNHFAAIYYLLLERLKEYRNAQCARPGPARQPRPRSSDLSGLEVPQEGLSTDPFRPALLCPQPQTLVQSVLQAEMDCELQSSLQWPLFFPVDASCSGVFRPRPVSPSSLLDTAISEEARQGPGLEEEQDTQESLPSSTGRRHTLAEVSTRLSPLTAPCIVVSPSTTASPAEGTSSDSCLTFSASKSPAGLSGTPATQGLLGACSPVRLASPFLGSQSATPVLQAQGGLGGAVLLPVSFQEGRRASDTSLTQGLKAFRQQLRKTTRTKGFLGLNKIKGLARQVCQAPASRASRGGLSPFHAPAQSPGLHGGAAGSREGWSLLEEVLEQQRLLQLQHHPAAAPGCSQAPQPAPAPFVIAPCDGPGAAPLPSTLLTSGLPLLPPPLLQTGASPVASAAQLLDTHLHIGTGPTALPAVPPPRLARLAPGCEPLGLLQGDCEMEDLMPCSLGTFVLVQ
Sequence of MAPK1 (human) (P28482 whole entry, looked up): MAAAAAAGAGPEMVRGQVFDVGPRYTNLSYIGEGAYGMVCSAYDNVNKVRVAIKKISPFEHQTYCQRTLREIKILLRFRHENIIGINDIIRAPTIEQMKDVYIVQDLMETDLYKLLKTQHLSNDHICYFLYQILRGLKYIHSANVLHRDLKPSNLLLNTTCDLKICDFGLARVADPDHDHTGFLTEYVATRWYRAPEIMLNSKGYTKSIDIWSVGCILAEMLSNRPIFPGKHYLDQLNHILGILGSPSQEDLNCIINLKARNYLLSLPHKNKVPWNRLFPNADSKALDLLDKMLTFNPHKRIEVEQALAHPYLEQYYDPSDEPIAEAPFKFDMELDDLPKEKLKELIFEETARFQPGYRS

## COc1cc(N2CCN(C)CC2)ccc1Nc1ncc2c(n1)N(C)c1sccc1C(=O)N2C
SIK1 (human)
  kinase still bound, per cent of control: 81%
[1]
  kinase still bound, per cent of control: 66%
CSF1R (human)
  kinase still bound, per cent of control: 54%
MAPK1 (human)
  kinase still bound, per cent of control: 83%
NUAK1 (human)
  kinase still bound, per cent of control: 25%
CDK5 (human)
  kinase still bound, per cent of control: 74%
TNK2 (human)
  kinase still bound, per cent of control: 25%
CSNK1A1L (human)
  kinase still bound, per cent of control: 93%
[2]
  kinase still bound, per cent of control: 62%
IGF1R (human)
  kinase still bound, per cent of control: 100%
RET (human)
  kinase still bound, per cent of control: 85%
MAPK6 (human)
  kinase still bound, per cent of control: 61%
BTK (human)
  kinase still bound, per cent of control: 82%
SRC (human)
  kinase still bound, per cent of control: 97%
KDR (human)
  kinase still bound, per cent of control: 90%
BMPR1A (human)
  kinase still bound, per cent of control: 100%
FRK (human)
  kinase still bound, per cent of control: 13%
SYK (human)
  kinase still bound, per cent of control: 100%
CDK15 (human)
  kinase still bound, per cent of control: 92%
[3]
  kinase still bound, per cent of control: 85%
MAPK3 (human)
  kinase still bound, per cent of control: 95%
MAPK7 (human)
  kinase still bound, per cent of control: 0.1%
MAP3K4 (human)
  kinase still bound, per cent of control: 71%
CAMK1 (human)
  kinase still bound, per cent of control: 71%
LATS1 (human)
  kinase still bound, per cent of control: 79%
ERBB4 (human)
  kinase still bound, per cent of control: 88%
CDK8 (human)
  kinase still bound, per cent of control: 100%
ERBB2 (human)
  kinase still bound, per cent of control: 89%
FLT1 (human)
  kinase still bound, per cent of control: 100%
MAP2K6 (human)
  kinase still bound, per cent of control: 100%
MAPK10 (human)
  kinase still bound, per cent of control: 70%
PRKAA2 (human)
  kinase still bound, per cent of control: 94%
[4]
  kinase still bound, per cent of control: 89%
MYO3A (human)
  kinase still bound, per cent of control: 59%
MAP3K3 (human)
  kinase still bound, per cent of control: 72%
MAPK4 (human)
  kinase still bound, per cent of control: 66%
STK36 (human)
  kinase still bound, per cent of control: 100%
[5]
  kinase still bound, per cent of control: 82%
EPHA3 (human)
  kinase still bound, per cent of control: 71%
CAMK2B (human)
  kinase still bound, per cent of control: 58%
[6]
  kinase still bound, per cent of control: 90%
TGFBR1 (human)
  kinase still bound, per cent of control: 100%
